Laboratory results as given in patent USRE38257E1, “Piperdine derivatives and hypotensives containing the same” (Ajinomoto Co., Inc., priority 1988, dated 2003).

Tested on: male spontaneously hypertensive rats
Assay: Decrease in systolic blood pressure in spontaneously hypertensive rats after intravenous bolus injection, indirect (tail-cuff) method
Type: in vivo, rat
Details: for Decrease in systolic blood pressure (mmHg) time after administration (hour) 0.5: 0.5 hour after administration; for Decrease in systolic blood pressure (mmHg) time after administration (hour) 4: 4 hours after administration
Method: As test animals, four male spontaneously hypertensive rats (weight 400 to 440 g) that were sufficiently adapted for feeding and in which hypertension was confirmed were used.
Physiological saline aqueous solution containing 2.5% Nicolle and 2.5% ethanol of sample was intravenously administered by bolus injection at a dose of 1 ml per 1 kg of body weight. Systolic blood pressure after administration was measured by the indirect (tail-cuff) method.

| Compound | Decrease in systolic blood pressure (mmHg) time after administration (hour) 0.5 (dose 10 mg/kg i.v. bolus) | Decrease in systolic blood pressure (mmHg) time after administration (hour) 4 (dose 10 mg/kg i.v. bolus) | other results |
| --- | --- | --- | --- |
| Cl.OC1CCCC(CCCCN2CCC(=C3c4ccccc4C=Cc4ccccc43)CC2)C1 (stereo not drawn) [Example 300, 1-(1-(3-Hydroxyoxy)cyclohexyl)-4-(4-(5H-dibenzo[a,d]cyclohepten-5-ylidene)-1-piperidinyl)butane hydrochloride] | −97 mmHg | −22 mmHg |  |
| C1=Cc2ccccc2C(=C2CCN(CCCCCCC3CCCCC3)CC2)c2ccccc21.Cl [Example 154, 1-Cyclohexyl-6-(4-(5H-dibenzo[a,d]cyclohepten-5-ylidene)-1-piperidinyl)hexane hydrochloride] | −131 mmHg | −105 mmHg |  |
| COc1ccc(C(=O)C(CCN2CCC(=C3c4ccccc4C=Cc4ccccc43)CC2)C(C)C)cc1OC.Cl (stereo not drawn) [Example 275, 4-(4-(5H-Dibenzo[a,d]cyclohepten-5-ylidene)-1-piperidinyl)-2-(2-propyl)-3′,4′-dimethoxybutyrophenone hydrochloride] | −66 mmHg | −20 mmHg |  |
| CCOC(=O)CCCN1CCC(=C2c3ccccc3C=Cc3ccccc32)CC1.Cl [Example 199, Ethyl 4-(4-(5H-dibanzo[a,d]cyclohepten-5-ylidene)-1-piperidinyl)butyrate hydrochloride] | −15 mmHg | −24 mmHg |  |
| CC(CC(=O)N1CCSCC1)N1CCC(=C2c3ccccc3C=Cc3ccccc32)CC1.Cl (stereo not drawn) [Example 246] | −34 mmHg | −4 mmHg |  |
| CCOC(=O)N1CCCC(CCCCN2CCC(=C3c4ccccc4C=Cc4ccccc43)CC2)C1.Cl (stereo not drawn) [Example 312, 4-(4-(5H-Dibenzo[a,d]cyclohepten-5-ylidene)-1-piperidinyl)-1-(N-ethoxycarbonyl-3-piperidinyl)butane hydrochloride] | −115 mmHg | −11 mmHg |  |
| Cl.O=C(CCCN1CCC(=C2c3ccccc3C=Cc3ccccc32)CC1)C1CCCCC1 [Example 176, 1-Cyclohexyl-3,(4-(5H-dibenzo[a,d]cyclohepten-5-ylidene)-1-piperidinyl)propylketone hydrochloride] | −105 mmHg | −10 mmHg |  |
| Cl.O=[N+]([O-])c1ccc2c(c1)CC(CN1CCC(=C3c4ccccc4C=Cc4ccccc43)CC1)C2 (stereo not drawn) [Example 332, 2-(4-(5H-Dibenzo[a,d]cyclohepten-5-ylidene)-1-piperidinyl)methyl-5′-nitroindan hydrochloride] | −111 mmHg | −57 mmHg |  |
| CN1CCCC(CCCCN2CCC(=C3c4ccccc4C=Cc4ccccc43)CC2)C1.Cl.Cl (stereo not drawn) [Example 295, 4-(4-(5H-Dibenzo[a,d]cyclohepten-5-ylidene)-1-piperidinyl)-1-(N-methyl-3-piperidinyl)butane dihydrochloride] |  |  | Decrease in systolic blood pressure (mmHg) time after administration (hour) 0.5 (dose 3 mg/kg i.v. bolus): −36 mmHg; Decrease in systolic blood pressure (mmHg) time after administration (hour) 4 (dose 3 mg/kg i.v. bolus): 1 mmHg |
| CCOC(=O)C(CCC1CCCCC1)CN1CCC(=C2c3ccccc3C=Cc3ccccc32)CC1.Cl (stereo not drawn) [Example 262] | −16 mmHg | −3 mmHg |  |
| CC(C)(C)C(=O)Nc1ccc(C=CCN2CCC(=C3c4ccccc4C=Cc4ccccc43)CC2)cc1.Cl [Example 379] |  |  | Decrease in systolic blood pressure (mmHg) time after administration (hour) 0.5 (dose 1 mg/kg i.v. bolus): −118 mmHg; Decrease in systolic blood pressure (mmHg) time after administration (hour) 4 (dose 1 mg/kg i.v. bolus): −59 mmHg |
| Cl.Fc1ccccc1CN1CCC(=C2c3ccccc3C=Cc3ccccc32)CC1 [Example 111, 4-(5H-Dibenzo[a,d]cyclohepten-5-ylidene)-1-(2-fluorobenzyl)piperidine hydrochloride] | −98 mmHg | −13 mmHg |  |
| COc1cc2nc(N3CCC(=C4c5ccccc5C=Cc5ccccc54)CC3)nc(N)c2cc1OC.Cl.Cl [Example 266, 2-(4-(5H-Dibenzo[a,d]cyclohepten-5-ylidene)-1-piperidinyl)-4-amino-6,7-dimethoxyquinazoline dihydrochloride] | −133 mmHg | −77 mmHg |  |
| Cl.Fc1ccc(C=CCN2CCC(=C3c4ccccc4C=Cc4ccccc43)CC2)cc1 [Example 353] | −147 mmHg | −138 mmHg |  |
| COc1cccc(CN2CCC(=C3c4ccccc4C=Cc4ccccc43)CC2)c1OC.Cl [Example 173, 4-(5H-Dibenzo[a,d]cyclohepten-5-ylidene)-1-(2,3-dimethoxybenzyl)piperidine hydrochloride] | −98 mmHg | −25 mmHg |  |
| C1=Cc2ccccc2C(=C2CCN(CCCc3ccncc3)CC2)c2ccccc21.Cl.Cl [Example 289, 3-(4-(5H-Dibenzo[a,d]cyclohepten-5-ylidene)-1-piperidinyl)-1-(4-pyridyl)propane dihydrochloride] |  |  | Decrease in systolic blood pressure (mmHg) time after administration (hour) 0.5 (dose 3 mg/kg i.v. bolus): −20 mmHg; Decrease in systolic blood pressure (mmHg) time after administration (hour) 4 (dose 3 mg/kg i.v. bolus): 10 mmHg |
| 5-(4-(5H-Dibenzo[a,d]cyclohepten-5-ylidene)-1-piperidinyl-2-(3,4-dimethoxyphenyl)valeronitrile hydrochloride [Example 123] | −55 mmHg | −7 mmHg |  |
| C1=Cc2ccccc2C(=C2CCN(CCOCC3CCCCC3)CC2)c2ccccc21.Cl [Example 279] |  |  | Decrease in systolic blood pressure (mmHg) time after administration (hour) 0.5 (dose 3 mg/kg i.v. bolus): −83 mmHg; Decrease in systolic blood pressure (mmHg) time after administration (hour) 4 (dose 3 mg/kg i.v. bolus): −24 mmHg |
| COc1cc(C(C#N)(CCCN2CCC(=C3c4ccccc4C=Cc4ccccc43)CC2)C(C)C)cc(OC)c1OC.Cl (stereo not drawn) [Example 126, 5-(4-(5H-Dibenzo[a,d]cyclohepten-5-ylidene)-1-piperidinyl)-2-isopropyl-2-(3,4,5-trimethoxyphenyl)valeronitrile hydrochloride] | −87 mmHg | −19 mmHg |  |
| COc1ccc(C(=O)CCN2CCC(=C3c4ccccc4C=Cc4ccccc43)CC2)cc1OC.Cl [Example 168, 3-(4-(5H-Dibenzo[a,d]cyclohepten-5-ylidene)-1-piperidinyl)-3′,4′-dimethoxypropiophenone hydrochloride] | −108 mmHg | 0 mmHg |  |
| COc1ccc(CCCCN2CCC(=C3c4ccccc4C=Cc4ccccc43)CC2)cc1NC(C)=O.Cl [Example 282, 1-(3-Acetylamino-4-methoxyphenyl)-4-(4-(5H-dibenzo[a,d]cyclohepten-5-ylidene)-1-piperidinyl)butane hydrochloride] | −72 mmHg | −15 mmHg |  |
